The record followed here is the NIST ThermoML archive (doi:10.1021/je300083m).

± gives the expanded uncertainty stated by the source.

This data set in a line: mn = molality of the nth substance listed, in mol/kg. The following applies: 101 kPa, Liquid, m1 = 0.512.

The term mass density denotes mass per unit of volume. `O=S(=O)([O-])[O-].[K+].[K+]` [potassium sulfate] + O: the mass density (298.15 K) worked out at 1063.81 ± 0.3 kg/m3; the mass density (303.15 K) is reported as 1062.02 ± 0.29 kg/m3; the mass density (308.15 K) is listed as 1060.06 ± 0.29 kg/m3; the mass density (313.15 K) is reported as 1057.74 ± 0.29 kg/m3; the mass density (318.15 K) came out at 1055.14 ± 0.28 kg/m3; the mass density (323.15 K) was 1052.95 ± 0.28 kg/m3.

On to `O=[N+]([O-])[O-].[K+]` [potassium nitrate] + O, for which the mass density (298.15 K) was 1027.98 ± 0.22 kg/m3; the mass density (303.15 K) is 1026.22 ± 0.22 kg/m3; the mass density (308.15 K) is reported as 1024.1 ± 0.21 kg/m3; the mass density (313.15 K) is recorded as 1022.05 ± 0.21 kg/m3; the mass density (318.15 K) is 1020.2 ± 0.21 kg/m3; the mass density (323.15 K) is on record as 1018.2 ± 0.2 kg/m3.
